Assays:
[1] = test system: SW620/AD300; assay: Cytotoxicity against human SW620/AD300 cells assessed as reduction in cell viability at 20 uM incubated for 72 hrs by CCK-8 assay relative to control; assay type: functional
[2] = Reversal fold, ratio of PTX IC50 to PTX IC50 in presence of test compound for reversal of multi-drug resistance in human SW620/AD300 cells incubated for 72 hrs by CCK-8 assay (reference value: 1.0); assay type: functional
[3] = molecular target: T1, ATP-dependent translocase ABCB1 (Homo sapiens, UniProt P08183); assay: Inhibition of ABCB1 in human SW620/AD300 cells assessed as accumulation of Rhodamine-123 by measuring fluorescence intensity incubated for 24 hrs by flow cytometric analysis; assay type: cell-based; conditions: sw620/ad300, 24 h, at 5 to 20 µM, dose 5-20 µM
T1 sequence (P08183 whole entry): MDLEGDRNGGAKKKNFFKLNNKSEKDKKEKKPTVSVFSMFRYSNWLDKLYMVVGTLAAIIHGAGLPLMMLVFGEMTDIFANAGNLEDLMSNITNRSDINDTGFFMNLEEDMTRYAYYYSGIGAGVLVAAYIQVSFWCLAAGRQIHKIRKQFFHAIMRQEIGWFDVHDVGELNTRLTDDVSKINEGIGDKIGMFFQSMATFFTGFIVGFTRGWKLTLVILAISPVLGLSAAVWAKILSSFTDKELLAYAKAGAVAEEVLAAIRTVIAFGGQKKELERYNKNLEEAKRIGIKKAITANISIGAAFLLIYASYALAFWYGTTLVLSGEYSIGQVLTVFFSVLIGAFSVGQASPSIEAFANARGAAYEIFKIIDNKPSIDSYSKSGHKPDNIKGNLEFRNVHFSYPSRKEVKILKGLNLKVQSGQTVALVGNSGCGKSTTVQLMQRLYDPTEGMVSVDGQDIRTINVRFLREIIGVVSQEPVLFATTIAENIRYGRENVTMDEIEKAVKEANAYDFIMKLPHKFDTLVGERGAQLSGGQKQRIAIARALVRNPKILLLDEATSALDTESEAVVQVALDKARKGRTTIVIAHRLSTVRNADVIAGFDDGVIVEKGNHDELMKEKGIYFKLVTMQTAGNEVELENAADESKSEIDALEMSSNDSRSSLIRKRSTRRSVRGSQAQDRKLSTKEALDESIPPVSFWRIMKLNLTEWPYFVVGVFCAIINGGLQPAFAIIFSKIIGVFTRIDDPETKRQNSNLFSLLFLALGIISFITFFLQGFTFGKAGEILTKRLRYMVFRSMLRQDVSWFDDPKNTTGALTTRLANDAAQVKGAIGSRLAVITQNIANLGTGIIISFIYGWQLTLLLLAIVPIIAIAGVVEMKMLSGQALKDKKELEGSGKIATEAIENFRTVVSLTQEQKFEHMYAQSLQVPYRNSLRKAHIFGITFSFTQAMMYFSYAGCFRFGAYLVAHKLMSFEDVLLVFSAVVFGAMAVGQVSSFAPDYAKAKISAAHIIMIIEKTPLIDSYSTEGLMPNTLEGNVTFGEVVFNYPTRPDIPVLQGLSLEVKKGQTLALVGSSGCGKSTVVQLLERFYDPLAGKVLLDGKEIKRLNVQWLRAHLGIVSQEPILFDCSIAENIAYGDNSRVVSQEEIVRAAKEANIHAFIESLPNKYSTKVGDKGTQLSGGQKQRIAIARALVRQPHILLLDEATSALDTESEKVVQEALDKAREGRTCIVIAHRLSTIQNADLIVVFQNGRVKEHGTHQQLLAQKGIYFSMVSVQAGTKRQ

[4] = Toxicity in male BALB/c nude mouse xenografted with ABCB1 overexpressing human SW620/AD300 cells assessed as cell necrosis in liver at 50 mg/kg administered every 3 days and measured after 14 days by H and E staining based analysis; assay type: organism-based; conditions: in vivo, 336 h, time 14 day
[5] = Toxicity in male BALB/c nude mouse xenografted with ABCB1 overexpressing human SW620/AD300 cells assessed as cell necrosis in liver measured after 14 days in presence of paclitaxel by H and E staining based analysis; conditions: 336 h, time 14 day
[6] = Toxicity in male BALB/c nude mouse xenografted with ABCB1 overexpressing human SW620/AD300 cells assessed as body weight loss measured after 14 days in presence of paclitaxel; conditions: 336 h, time 14 day
[7] = Toxicity in male BALB/c nude mouse xenografted with ABCB1 overexpressing human SW620/AD300 cells assessed as cell necrosis in spleen measured after 14 days in presence of paclitaxel by H and E staining based analysis; conditions: 336 h, time 14 day
[8] = Toxicity in male BALB/c nude mouse xenografted with ABCB1 overexpressing human SW620/AD300 cells assessed as cell necrosis in kidney measured after 14 days in presence of paclitaxel by H and E staining based analysis; assay type: tissue-based; conditions: 336 h, time 14 day
[9] = Toxicity in male BALB/c nude mouse xenografted with ABCB1 overexpressing human SW620/AD300 cells assessed as body weight loss at 50 mg/kg administered every 3 days and measured after 14 days; assay type: organism-based; conditions: in vivo, 336 h, time 14 day
[10] = molecular target: T1, ATP-dependent translocase ABCB1; assay: Binding affinity to ABCB1 (unknown origin) in human SW620/AD300 cells assessed as thermal stabilization at 20 uM at 40 to 65 degreeC incubated for 30 mins by CETSA; assay type: cell-based; conditions: sw620/ad300, 0.5 h
[11] = Toxicity in male BALB/c nude mouse xenografted with ABCB1 overexpressing human SW620/AD300 cells assessed as cell necrosis in spleen at 50 mg/kg administered every 3 days and measured after 14 days by H and E staining based analysis; assay type: organism-based; conditions: in vivo, 336 h, time 14 day
[12] = Toxicity in male BALB/c nude mouse xenografted with ABCB1 overexpressing human SW620/AD300 cells assessed as cell necrosis in kidney at 50 mg/kg administered every 3 days and measured after 14 days by H and E staining based analysis; assay type: organism-based; conditions: in vivo, 336 h, time 14 day

Row | Compound | Activity [1] [%] | Ratio IC50 [2] | further results
1 | Fc1ccc(-c2nccc3c2[nH]c2ccccc23)cc1 | >80 | 5.3 | 
2 | CCc1nc(C(=O)OC)cc2c1[nH]c1ccccc12 | >80 | 1.3 | 
3 | Oc1ccc(-c2nccc3c2[nH]c2ccccc23)cc1 | >80 | 1.6 | 
4 | CC(C)Cc1nccc2c1[nH]c1ccccc12 | >80 | 3.2 | 
5 | N#Cc1cccc(-c2nccc3c2[nH]c2ccccc23)c1 | >80 | 2.2 | 
6 | N#Cc1ccc(-c2nccc3c2[nH]c2ccccc23)cc1 | >80 | 3.5 | 
7 | Clc1cc(Cl)cc(-c2nccc3c2[nH]c2ccccc23)c1 | >80 | 7.3 | 
8 | FC(F)(F)c1ccc(-c2nccc3c2[nH]c2ccccc23)cc1 | >80 | 3.2 | 
9 | COc1ccc(-c2nccc3c2[nH]c2ccccc23)cc1 | >80 | 37.8 | 
10 | CCc1ccc(-c2nccc3c2[nH]c2ccccc23)cc1 | <80 |  | 
11 | COc1ccc(-c2nccc3c4ccccc4n(C)c23)cc1 |  |  | inhibition (INH) [3]: Dose-dependent-effect; Activity [4]: Non-toxic; Activity [5]: Non-toxic; Activity [6]: Non-toxic; Activity [7]: Non-toxic; Activity [8]: Non-toxic; Activity [9]: Non-toxic; Activity [10]: Active; Activity [11]: Non-toxic; Activity [12]: Non-toxic
12 | CCc1ccc(-c2nccc3c4ccccc4n(CC)c23)cc1 | <80 |  | 
13 | Cc1nc(-c2ccc(-c3nccc4c3[nH]c3ccccc34)cc2)no1 | >80 | 27.5 | 
14 | COc1ccc2[nH]c3c(CC(C)C)nccc3c2c1 | <80 |  | 
15 | Cc1ccc(-c2nccc3c2[nH]c2ccccc23)cc1 | <80 |  | 
16 | CC(C)Cc1nccc2c3ccccc3n(Cc3ccccc3)c12 | >80 | 113.6 | 
17 | CCn1c2ccccc2c2ccnc(-c3ccc(C(F)(F)F)cc3)c21 | >80 | 14.8 | 
18 | CC(C)Cc1nc(C(=O)OCc2ccccc2)cc2c1[nH]c1ccccc12 | >80 | 4 | 
19 | CC(C)Cc1nccc2c3ccccc3n(CC(C)C)c12 | <80 |  | 
20 | CCOC(=O)c1cc2c([nH]c3ccccc32)c(CC(C)C)n1 | >80 | 47.4 | 
21 | Cc1nc(-c2cccc(-c3nccc4c3[nH]c3ccccc34)c2)no1 | >80 | 3.3 | 
22 | COc1ccc(-c2nccc3c4ccccc4n(Cc4ccccc4C)c23)cc1 | <80 |  | 
23 | Cc1cccc2c1[nH]c1c(CC(C)C)nccc12 | <80 |  | 
24 | COc1ccc(-c2nccc3c2[nH]c2c(C)cccc23)cc1 | <80 |  | 

Row | Compound | Activity [1] [%] | Ratio IC50 [2] | further results
25 | CCc1ccc(-c2nccc3c4ccccc4n(Cc4ccc(C(C)C)cc4)c23)cc1 | <80 |  | 
26 | CCC(CC)c1nccc2c1[nH]c1ccccc12 | >80 | 31 | 
27 | COc1ccc(-c2nccc3c4ccccc4n(Cc4ccccc4)c23)cc1 | <80 |  | 
28 | Cn1c2ccccc2c2ccnc(-c3ccc(C(F)(F)F)cc3)c21 | >80 | 25.9 | 
29 | CCc1ccc(-c2nc(C(=O)OCc3ccccc3)cc3c2[nH]c2ccccc23)cc1 | >80 |  | 
30 | CCc1ccc(-c2nc(C(=O)OC)cc3c2[nH]c2ccccc23)cc1 | >80 |  | 
31 | COc1ccc(-c2nccc3c2[nH]c2ccc(OC)cc23)cc1 | <80 |  | 
32 | CCC(CC)c1nccc2c3ccccc3n(CC)c12 | <80 |  | 
33 | COc1ccc(-c2nccc3c2[nH]c2cc(OC)ccc23)cc1 | 80 |  | 
34 | COc1ccc(-c2nccc3c4ccccc4n(Cc4ccc(C)cc4)c23)cc1 | >80 | 25.6 | 
35 | CCC(CC)c1nccc2c1[nH]c1ccc(OC)cc12 | <80 |  | 
36 | COc1ccc(-c2nccc3c4ccccc4n(Cc4ccc(C(C)C)cc4)c23)cc1 | >80 | 26.3 | 
37 | CCc1ccc(-c2nccc3c4ccccc4n(C)c23)cc1 | <80 |  | 
38 | CC(C)c1ccc(-c2nccc3c2[nH]c2ccccc23)cc1 | <80 |  | 
39 | CC(C)Cc1nccc2c3ccccc3n(C)c12 | <80 |  | 
40 | CCc1ccc(-c2nccc3c4ccccc4n(Cc4ccccc4C)c23)cc1 | <80 |  | 
41 | CCn1c2ccccc2c2ccnc(CC(C)C)c21 | <80 |  | 
42 | CCn1c2ccccc2c2ccnc(-c3ccc(OC)cc3)c21 | >80 | 12.3 | 
43 | C#CCn1c2ccccc2c2ccnc(CC(C)C)c21 | >80 | 15.9 | 
44 | COC(=O)c1cc2c([nH]c3ccccc32)c(CC(C)C)n1 | >80 | 2.7 | 
45 | CCc1ccc(-c2nccc3c4ccccc4n(Cc4ccc(C)cc4)c23)cc1 | >80 | 26.6 | 
46 | COc1ccc2c(c1)[nH]c1c(CC(C)C)nccc12 | <80 |  | 
47 | COc1cc(OC)cc(-c2nccc3c2[nH]c2ccccc23)c1 | <80 |  | 
48 | CCC(CC)c1nccc2c3ccccc3n(C)c12 | <80 |  | 
